Activity calls are given as the source filed them.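 How the source made its calls: active means inhibition of the parasite aminopeptidase above 50%; inactive means the rest.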

Leucine aminopeptidase (Plasmodium falciparum (isolate 3D7)), sequence (Q8IL11 whole entry, looked up): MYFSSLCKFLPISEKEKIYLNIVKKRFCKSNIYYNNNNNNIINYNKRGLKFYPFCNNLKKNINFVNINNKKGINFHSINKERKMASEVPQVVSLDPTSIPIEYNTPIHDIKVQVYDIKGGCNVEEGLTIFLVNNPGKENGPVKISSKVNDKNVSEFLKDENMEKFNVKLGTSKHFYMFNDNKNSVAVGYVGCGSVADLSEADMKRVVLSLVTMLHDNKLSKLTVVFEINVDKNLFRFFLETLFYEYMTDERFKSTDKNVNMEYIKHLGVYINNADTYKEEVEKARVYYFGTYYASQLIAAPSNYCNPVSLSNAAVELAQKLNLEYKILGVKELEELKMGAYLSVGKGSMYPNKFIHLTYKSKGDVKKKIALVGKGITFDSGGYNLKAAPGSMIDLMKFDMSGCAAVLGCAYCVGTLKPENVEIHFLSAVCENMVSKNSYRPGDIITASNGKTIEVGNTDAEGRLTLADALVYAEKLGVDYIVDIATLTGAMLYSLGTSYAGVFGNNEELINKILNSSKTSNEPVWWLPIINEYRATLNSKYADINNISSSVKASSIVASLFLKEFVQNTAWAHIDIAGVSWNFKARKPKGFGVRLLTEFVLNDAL

The test has as its target Leucine aminopeptidase (Plasmodium falciparum (isolate 3D7)) (UniProt Q8IL11). In words: recombinant PfM17LAP enzyme inhibitors, late-stage follow-up, biochemical, fluorescence, powder samples (AID 492977). As to conditions: H-Leu-NHMec fluorogenic substrate, at 5 µM, hits give high values.
With `O=C(CSc1nnc(Nc2ccccc2)s1)NN1C(=O)NC2(CCCCC2)C1=O`, the inhibition is 37% (inactive).

On to `COc1ccc(-c2cc(=O)[nH][nH]2)cc1OC`, for which the inhibition was 18% (inactive).

In the case of `COc1ccc2nc(SCC(=O)Nc3cc(OC)c(OC)cc3C(=O)O)c(C)cc2c1`, the inhibition is 86%.

Regarding `COC(=O)c1c(-c2ccco2)csc1NC(=O)[C@H]1CC=CC[C@H]1C(=O)O`, the inhibition is 50% (inactive).

Turning to `O=C(O)Cc1ccc(NC(=O)Nc2ccc(Br)cc2)cc1`, the inhibition is 38% (inactive).

With `COc1cc(NC(=O)CSc2nc3cc(C)ccc3cc2C)c(C(=O)O)cc1OC`, the inhibition was 82%.

As to `CCOC(=O)c1c(NC(=O)[C@@H]2C3C=CC(C3)[C@@H]2C(=O)O)sc2c1CCC(CC)C2` (some centres not stated), the inhibition is 20% (inactive).

As for `Cn1c(SCC(=O)Nc2cccc3ccccc23)nc(O)cc1=O`, the inhibition is 12% (inactive).

For `CCOC(=O)c1c(NC(=O)[C@@H]2C3CCC(O3)[C@@H]2C(=O)O)sc(C)c1-c1ccc(C)cc1` (some centres not stated), the inhibition was 20% (inactive).

Consider `O=C(O)CCCCCNC(=O)Nc1ccc2c(c1)OCCO2`, for which the inhibition is 15% (inactive).

Take `O=C(Nc1cc(Cl)ccc1Cl)[C@H]1CC=CC[C@H]1C(=O)O`: the inhibition is 14% (inactive).

With `N#Cc1c(NC(=O)[C@@H]2C3C=CC(C3)[C@@H]2C(=O)O)sc2c1CCCCC2` (some centres not stated), the inhibition was 25% (inactive).

Turning to `CCOc1cccc(-c2cc(=O)[nH][nH]2)c1`, the inhibition was 72%.

On to `O=c1cc(-c2ccc(F)cc2)[nH][nH]1`, for which the inhibition is 49% (inactive).

As to `Cc1ccc(Nc2nnc(SC3CCOC3=O)s2)cc1` (configuration not stated), the inhibition was 53%.

Turning to `Cc1ccc(Nc2nnc(SCc3cc(=O)n4ccsc4n3)s2)c(C)c1`, the inhibition is 10% (inactive).

In the case of `COc1cc(NC(=O)CSc2nc3c(C)ccc(C)c3cc2C)c(C(=O)O)cc1OC`, the inhibition was 93%.

`S=c1nc(-c2cccc(Cl)c2)[nH][nH]1`: the inhibition was 45% (inactive).

For `C=CCn1c(SCC(=O)Nc2cccc3ccccc23)nc(O)c(CC)c1=O`, the inhibition was 20% (inactive).

For the molecule `Cc1cc(C(=O)COC(=O)c2ccc[nH]c2=O)c(C)n1-c1ccc(F)cc1`, the inhibition was 19% (inactive).

Turning to `O=C(Nc1cccc(Cl)c1)[C@H]1CC=CC[C@H]1C(=O)O`, the inhibition was 13% (inactive).

Consider `Cc1ccc(-n2c(C)cc(C(=O)COC(=O)c3ccc[nH]c3=O)c2C)cc1C`, for which the inhibition is 36% (inactive).

With `COC(=O)c1c(-c2cc(C)ccc2C)csc1NC(=O)[C@@H]1CC=CC[C@@H]1C(=O)O`, the inhibition is 58%.

In the case of `S=c1nc(-c2ccccc2Br)[nH][nH]1`, the inhibition is 27% (inactive).

With `Cc1ccc(-c2cccc(NC(=O)[C@@H]3C4C=CC(C4)[C@@H]3C(=O)O)c2)o1` (some centres not stated), the inhibition was 9% (inactive).

Consider `CCN(CC)c1ccc(NC(=O)CSc2nc(C)cc(=O)[nH]2)cc1`, for which the inhibition was 43% (inactive).

As to `CCn1c2ccccc2c2cc(NC(=O)CSc3nccc(=O)[nH]3)ccc21`, the inhibition was 70%.

For `COC(=O)c1cccc(NC(=O)CSc2nc(C)cc(=O)[nH]2)c1`, the inhibition is 21% (inactive).

Regarding `Cc1ccc(-c2c(C)sc(NC(=O)[C@@H]3C4CCC(O4)[C@@H]3C(=O)O)c2C(=O)OC(C)C)cc1` (some centres not stated), the inhibition was 19% (inactive).

On to `O=C(CSc1nc(O)cc(=O)n1-c1ccccc1)Nc1ccc2c3c(cccc13)CC2`, for which the inhibition is 20% (inactive).

For the molecule `CCc1ccc(NC(=O)[C@H]2CC=CC[C@H]2C(=O)O)cc1`, the inhibition is 27% (inactive).

Regarding `COC(=O)c1c(-c2ccc(C)cc2)csc1NC(=O)[C@H]1CC=CC[C@H]1C(=O)O`, the inhibition is 47% (inactive).

Consider `Cc1ccc(NC(=O)CSc2nnc(C)c(=O)[nH]2)cc1C`, for which the inhibition was 17% (inactive).

`COc1cc(NC(=O)CSc2nnc3c(C)cc4cc(C)cc(C)c4n23)c(C(=O)O)cc1OC`: the inhibition was 72%.

As to `CCCCc1c(O)nc(SCC(=O)Nc2ccc3c(c2)CCC3)[nH]c1=O`, the inhibition was 27% (inactive).

Turning to `O=c1cc(-c2ccc(Cl)c(Cl)c2)[nH][nH]1`, the inhibition is 2% (inactive).

Consider `CCOc1ccc(NC(=O)Nc2ccc3nccnc3c2)cc1`, for which the inhibition was 11% (inactive).

For `CC1=C(C)C[C@@H](C(=O)O)[C@@H](C(=O)Nc2cccc([N+](=O)[O-])c2)C1`, the inhibition was 12% (inactive).

For the molecule `COc1ccc(-c2cc(=O)[nH][nH]2)cc1`, the inhibition was 40% (inactive).

`Cc1ccc(-n2c(C)cc(C(=O)COC(=O)c3ccc[nH]c3=O)c2C)cc1`: the inhibition was 40% (inactive).

On to `COc1ccc(NC(=O)CSc2nc(O)cc(=O)n2C)cc1`, for which the inhibition was 18% (inactive).

Take `COC(=O)c1c(NC(=O)[C@H]2CC=CC[C@H]2C(=O)O)sc(C)c1C`: the inhibition was 17% (inactive).

Regarding `CCc1ccc(Nc2nnc(SC3CCOC3=O)s2)cc1` (configuration not stated), the inhibition was 31% (inactive).

Regarding `CCc1cc2cc(OC)ccc2nc1SCC(=O)Nc1cc(OC)c(OC)cc1C(=O)O`, the inhibition was 89%.

As to `COC(=O)c1c(NC(=O)[C@H]2CCCC[C@H]2C(=O)O)sc2c1CCCCC2`, the inhibition is 59%.

For the molecule `CC(C)c1ccc(NC(=O)[C@H]2CCCC[C@H]2C(=O)O)cc1`, the inhibition was 15% (inactive).

As for `CCc1cc2ccccc2nc1SCC(=O)Nc1cc(OC)c(OC)cc1C(=O)O`, the inhibition was 89%.

Consider `CCOc1ccc(NC(=O)Nc2cccs2)cc1`, for which the inhibition was 31% (inactive).

As for `O=C(Nc1ccc(Cl)cc1)Nc1cccc(C(=O)O)c1`, the inhibition was 65%.

For `CCc1cc2ccc(C)cc2nc1SCC(=O)Nc1cc(OC)c(OC)cc1C(=O)O`, the inhibition was 90%.

For the molecule `CCOC(=O)c1c(-c2cccc(C)c2)csc1NC(=O)[C@H]1CC=CC[C@H]1C(=O)O`, the inhibition was 19% (inactive).

`COc1ccc(NC(=O)CSC2=NC(=O)CC(C)=N2)cc1`: the inhibition is 21% (inactive).

As to `COc1cc(NC(=O)CSc2nc3ccccc3cc2C)c(C(=O)O)cc1OC`, the inhibition was 86%.

In the case of `COc1ccc(C(C)(C)C)cc1NC(=O)[C@H]1CC=CC[C@H]1C(=O)O`, the inhibition is 26% (inactive).

Regarding `CCOC(=O)c1c(-c2ccc(C)cc2)csc1NC(=O)[C@H]1CC=CC[C@H]1C(=O)O`, the inhibition was 24% (inactive).

For `O=C(CSc1nccc(=O)[nH]1)Nc1ccc(Br)c(Cl)c1`, the inhibition was 60%.

Turning to `Cc1cc(C(=O)COC(=O)c2ccc[nH]c2=O)c(C)n1-c1ccccc1`, the inhibition was 23% (inactive).

Usually inhibition stands for the change of the read-out against control, counted positive when it falls.

Values taken from PubChem BioAssay AID492977 (The Scripps Research Institute Molecular Screening Center, 2010).
